Assay results: ChEMBL document CHEMBL3734723, “Synthesis and anticancer activity of 6-heteroarylcoumarins” (2015)

Tests used:
Type in all cases: functional
[1] = Growth inhibition of human SKOV3 cells incubated for 48 hrs by sulforhodamine B assay; conditions: SK-OV-3, 48 h; for CC50: read-out: LC50 (the source's name)
[2] = Growth inhibition of human SNB19 cells incubated for 48 hrs by sulforhodamine B assay; conditions: SNB-19, 48 h; for CC50: read-out: LC50 (the source's name)
[3] = Growth inhibition of human BT549 cells incubated for 48 hrs by sulforhodamine B assay; conditions: BT-549, 48 h; for CC50: read-out: LC50 (the source's name)
[4] = Growth inhibition of human HCT15 cells incubated for 48 hrs by sulforhodamine B assay; conditions: HCT-15, 48 h; for CC50: read-out: LC50 (the source's name)
[5] = Growth inhibition of human non-small cell lung cancer cells after 48 hrs by sulforhodamine B assay; conditions: Cancer cell lines; for CC50: read-out: LC50 (the source's name)
CCRF-CEM = test: Cytotoxicity against human CCRF-CEM cells assessed as cell growth at 10 uM incubated for 48 hrs by sulforhodamine B assay; conditions: read-out: Activity
[6] = Growth inhibition of human UACC257 cells incubated for 48 hrs by sulforhodamine B assay; conditions: UACC-257, 48 h; for CC50: read-out: LC50 (the source's name)
[7] = Growth inhibition of human SW620 cells incubated for 48 hrs by sulforhodamine B assay; conditions: SW-620, 48 h; for CC50: read-out: LC50 (the source's name)
MDA-MB-231 [8] = test: Growth inhibition of human MDA-MB-231 cells incubated for 48 hrs by sulforhodamine B assay; conditions: MDA-MB-231, 48 h; for CC50: read-out: LC50 (the source's name)
[9] = Cytotoxicity against human NCI-ADR-RES cells assessed as cell growth at 10 uM incubated for 48 hrs by sulforhodamine B assay; conditions: read-out: Activity
SN12C [10] = test: Growth inhibition of human SN12C cells incubated for 48 hrs by sulforhodamine B assay; conditions: for CC50: read-out: LC50 (the source's name)
[11] = Cytotoxicity against human IGROV1 cells assessed as cell growth at 10 uM incubated for 48 hrs by sulforhodamine B assay; conditions: IGROV-1, 48 h, read-out: Activity
786-0 = test: Cytotoxicity against human 786-0 cells assessed as cell growth at 10 uM incubated for 48 hrs by sulforhodamine B assay; conditions: 786-0, 48 h, read-out: Activity
SN12C [12] = test: Cytotoxicity against human SN12C cells assessed as cell growth at 10 uM incubated for 48 hrs by sulforhodamine B assay; conditions: read-out: Activity
MDA-MB-231 [13] = test: Cytotoxicity against human MDA-MB-231 cells assessed as cell growth at 10 uM incubated for 48 hrs by sulforhodamine B assay; conditions: MDA-MB-231, 48 h, read-out: Activity
[14] = Cytotoxicity against human MOLT4 cells assessed as cell growth at 10 uM incubated for 48 hrs by sulforhodamine B assay; conditions: MOLT-4, 48 h, read-out: Activity
[15] = Growth inhibition of human SF268 cells incubated for 48 hrs by sulforhodamine B assay; conditions: SF-268, 48 h; for CC50: read-out: LC50 (the source's name)
[16] = Cytotoxicity against human SW620 cells assessed as cell growth at 10 uM incubated for 48 hrs by sulforhodamine B assay; conditions: SW-620, 48 h, read-out: Activity
[17] = Growth inhibition of human SNB75 cells incubated for 48 hrs by sulforhodamine B assay; conditions: SNB-75, 48 h; for CC50: read-out: LC50 (the source's name)
[18] = Cytotoxicity against human HOP92 cells assessed as cell growth at 10 uM incubated for 48 hrs by sulforhodamine B assay; conditions: HOP-92, 48 h, read-out: Activity
NCI-H460 = test: Growth inhibition of human NCI-H460 cells incubated for 48 hrs by sulforhodamine B assay; conditions: NCI-H460, 48 h; for CC50: read-out: LC50 (the source's name)
[19] = Growth inhibition of human COLO205 cells incubated for 48 hrs by sulforhodamine B assay; conditions: COLO 205, 48 h; for CC50: read-out: LC50 (the source's name)
NCI-H322M = test: Growth inhibition of human NCI-H322M cells incubated for 48 hrs by sulforhodamine B assay; conditions: for CC50: read-out: LC50 (the source's name)
[20] = Cytotoxicity against human PC3 cells assessed as cell growth at 10 uM incubated for 48 hrs by sulforhodamine B assay; conditions: PC-3, 48 h, read-out: Activity
A498 = test: Cytotoxicity against human A498 cells assessed as cell growth at 10 uM incubated for 48 hrs by sulforhodamine B assay; conditions: A498, 48 h, read-out: Activity
[21] = Growth inhibition of human breast cancer cells after 48 hrs by sulforhodamine B assay; conditions: Cancer cell lines; for CC50: read-out: LC50 (the source's name)
A549 = test: Growth inhibition of human A549 cells incubated for 48 hrs by sulforhodamine B assay; conditions: A549, 48 h; for CC50: read-out: LC50 (the source's name)
[22] = Growth inhibition of human leukemia cells after 48 hrs by sulforhodamine B assay; conditions: Leukemia cell; for CC50: read-out: LC50 (the source's name)
[23] = Cytotoxicity against human OVCAR4 cells assessed as cell growth at 10 uM incubated for 48 hrs by sulforhodamine B assay; conditions: OVCAR-4, 48 h, read-out: Activity
SK-MEL-5 = test: Growth inhibition of human SK-MEL-5 cells incubated for 48 hrs by sulforhodamine B assay; conditions: SK-MEL-5, 48 h; for CC50: read-out: LC50 (the source's name)
ACHN = test: Growth inhibition of human ACHN cells incubated for 48 hrs by sulforhodamine B assay; conditions: for CC50: read-out: LC50 (the source's name)
KM12 = test: Growth inhibition of human KM12 cells incubated for 48 hrs by sulforhodamine B assay; conditions: KM12, 48 h; for CC50: read-out: LC50 (the source's name)
T47D = test: Growth inhibition of human T47D cells incubated for 48 hrs by sulforhodamine B assay; conditions: for CC50: read-out: LC50 (the source's name)
NCI-H522 = test: Growth inhibition of human NCI-H522 cells incubated for 48 hrs by sulforhodamine B assay; conditions: NCI-H522, 48 h; for CC50: read-out: LC50 (the source's name)
MDA-MB-435 = test: Cytotoxicity against human MDA-MB-435 cells assessed as cell growth at 10 uM incubated for 48 hrs by sulforhodamine B assay; conditions: MDA-MB-435, 48 h, read-out: Activity

Cc1cc(=O)oc2c(C)c(O)c(-c3ccnc(N)n3)cc12
GI50 [1]: 28.3 µM
TGI [1]: > 100 µM
CC50 [1]: > 100 µM
GI50 [2]: 35.8 µM
TGI [2]: > 100 µM
CC50 [2]: > 100 µM
GI50 [3]: 47.8 µM
TGI [3]: > 100 µM
CC50 [3]: > 100 µM
GI50 [4]: 8.45 µM
TGI [4]: > 100 µM
CC50 [4]: > 100 µM
GI50 [5]: 24.4 µM
TGI [5]: > 100 µM
CC50 [5]: > 100 µM
growth at 10 µM (CCRF-CEM): -36.8%
GI50 [6]: > 100 µM
TGI [6]: > 100 µM
CC50 [6]: > 100 µM
GI50 [7]: 3.6 µM
TGI [7]: > 100 µM
CC50 [7]: > 100 µM
GI50 (MDA-MB-231 [8]): > 100 µM
TGI (MDA-MB-231 [8]): > 100 µM
CC50 (MDA-MB-231 [8]): > 100 µM
growth at 10 µM [9]: 57.1%
GI50 (SN12C [10]): 29.2 µM
TGI (SN12C [10]): > 100 µM
CC50 (SN12C [10]): > 100 µM
growth at 10 µM [11]: 60.9%
growth at 10 µM (786-0): 62.1%
growth at 10 µM (SN12C [12]): 50.8%
growth at 10 µM (MDA-MB-231 [13]): 69%
growth at 10 µM [14]: -44.7%
GI50 [15]: 12.3 µM
TGI [15]: > 100 µM
CC50 [15]: > 100 µM
growth at 10 µM [16]: 38.4%
GI50 [17]: 5.08 µM
TGI [17]: 92.9 µM
CC50 [17]: > 100 µM
growth at 10 µM [18]: 47.4%
GI50 (NCI-H460): 2.44 µM
TGI (NCI-H460): > 100 µM
CC50 (NCI-H460): > 100 µM
GI50 [19]: 6.85 µM
TGI [19]: > 100 µM
CC50 [19]: > 100 µM
GI50 (NCI-H322M): 59 µM
TGI (NCI-H322M): > 100 µM
CC50 (NCI-H322M): > 100 µM
growth at 10 µM [20]: 60.3%
growth at 10 µM (A498): 42.9%
GI50 [21]: 32 µM
TGI [21]: > 100 µM
CC50 [21]: > 100 µM
GI50 (A549): 3.03 µM
TGI (A549): > 100 µM
CC50 (A549): > 100 µM
GI50 [22]: 31.9 µM
TGI [22]: > 100 µM
CC50 [22]: > 100 µM
growth at 10 µM [23]: 68.6%
GI50 (SK-MEL-5): 3.56 µM
TGI (SK-MEL-5): > 100 µM
CC50 (SK-MEL-5): > 100 µM
GI50 (ACHN): 2.39 µM
TGI (ACHN): > 100 µM
CC50 (ACHN): > 100 µM
GI50 (KM12): > 100 µM
TGI (KM12): > 100 µM
CC50 (KM12): > 100 µM
GI50 (T47D): 5 µM
TGI (T47D): > 100 µM
CC50 (T47D): > 100 µM
GI50 (NCI-H522): 20.7 µM
TGI (NCI-H522): > 100 µM
CC50 (NCI-H522): > 100 µM
growth at 10 µM (MDA-MB-435): 55%

Cc1cc(=O)oc2c(C)c(O)c(-c3cc4ccc(F)cc4[nH]3)cc12
GI50 [1]: 2.93 µM
TGI [1]: 13.1 µM
CC50 [1]: 64.9 µM
CC50 [2]: > 100 µM
GI50 [3]: 3.57 µM
TGI [3]: 13.6 µM
CC50 [3]: 65.9 µM
GI50 [4]: 3.09 µM
TGI [4]: 13.6 µM
CC50 [4]: 63.1 µM
GI50 [5]: 2.75 µM
TGI [5]: 12.4 µM
CC50 [5]: 64.1 µM
growth at 10 µM (CCRF-CEM): 43.1%
GI50 [6]: 1.82 µM
TGI [6]: 3.78 µM
CC50 [6]: 7.87 µM
GI50 [7]: 3.54 µM
TGI [7]: 15.2 µM
CC50 [7]: 52.2 µM
GI50 (MDA-MB-231 [8]): 2.49 µM
TGI (MDA-MB-231 [8]): 10.2 µM
CC50 (MDA-MB-231 [8]): > 100 µM
growth at 10 µM [9]: 20.7%
GI50 (SN12C [10]): 3.32 µM
TGI (SN12C [10]): 13 µM
CC50 (SN12C [10]): 48 µM
growth at 10 µM [11]: 33.2%
growth at 10 µM (786-0): 42.2%
growth at 10 µM (SN12C [12]): 35.1%
growth at 10 µM (MDA-MB-231 [13]): 59.3%
growth at 10 µM [14]: 36.5%
GI50 [15]: 3.42 µM
TGI [15]: 15 µM
CC50 [15]: 83.3 µM
growth at 10 µM [16]: 58.6%
GI50 [17]: 5.7 µM
TGI [17]: 24 µM
CC50 [17]: 78.3 µM
growth at 10 µM [18]: -9.31%
GI50 (NCI-H460): 2.82 µM
TGI (NCI-H460): 10.5 µM
CC50 (NCI-H460): 66.6 µM
GI50 [19]: 11.7 µM
TGI [19]: 25.6 µM
CC50 [19]: 56 µM
GI50 (NCI-H322M): 3.23 µM
TGI (NCI-H322M): 13.1 µM
CC50 (NCI-H322M): 88.3 µM
growth at 10 µM [20]: 27.5%
growth at 10 µM (A498): 52.5%
GI50 [21]: 2.67 µM
TGI [21]: 14.2 µM
CC50 [21]: 89.3 µM
GI50 (A549): 3.82 µM
TGI (A549): 15 µM
CC50 (A549): 58.4 µM
GI50 [22]: 3.08 µM
TGI [22]: 19.8 µM
CC50 [22]: > 100 µM
growth at 10 µM [23]: 33.7%
GI50 (SK-MEL-5): 1.65 µM
TGI (SK-MEL-5): 4.46 µM
CC50 (SK-MEL-5): 14.5 µM
GI50 (ACHN): 2.64 µM
TGI (ACHN): 10.6 µM
CC50 (ACHN): 74.7 µM
GI50 (KM12): 3.03 µM
TGI (KM12): 12.4 µM
CC50 (KM12): 42 µM
GI50 (T47D): 2.39 µM
TGI (T47D): 22.1 µM
CC50 (T47D): > 100 µM
GI50 (NCI-H522): 2.78 µM
TGI (NCI-H522): 9.09 µM
CC50 (NCI-H522): 48.9 µM
growth at 10 µM (MDA-MB-435): 32.4%
